A value given as a limit tells only on which side of the number the result lay.

Chain of FGFR3 kinase (P22607 23-806 K650E): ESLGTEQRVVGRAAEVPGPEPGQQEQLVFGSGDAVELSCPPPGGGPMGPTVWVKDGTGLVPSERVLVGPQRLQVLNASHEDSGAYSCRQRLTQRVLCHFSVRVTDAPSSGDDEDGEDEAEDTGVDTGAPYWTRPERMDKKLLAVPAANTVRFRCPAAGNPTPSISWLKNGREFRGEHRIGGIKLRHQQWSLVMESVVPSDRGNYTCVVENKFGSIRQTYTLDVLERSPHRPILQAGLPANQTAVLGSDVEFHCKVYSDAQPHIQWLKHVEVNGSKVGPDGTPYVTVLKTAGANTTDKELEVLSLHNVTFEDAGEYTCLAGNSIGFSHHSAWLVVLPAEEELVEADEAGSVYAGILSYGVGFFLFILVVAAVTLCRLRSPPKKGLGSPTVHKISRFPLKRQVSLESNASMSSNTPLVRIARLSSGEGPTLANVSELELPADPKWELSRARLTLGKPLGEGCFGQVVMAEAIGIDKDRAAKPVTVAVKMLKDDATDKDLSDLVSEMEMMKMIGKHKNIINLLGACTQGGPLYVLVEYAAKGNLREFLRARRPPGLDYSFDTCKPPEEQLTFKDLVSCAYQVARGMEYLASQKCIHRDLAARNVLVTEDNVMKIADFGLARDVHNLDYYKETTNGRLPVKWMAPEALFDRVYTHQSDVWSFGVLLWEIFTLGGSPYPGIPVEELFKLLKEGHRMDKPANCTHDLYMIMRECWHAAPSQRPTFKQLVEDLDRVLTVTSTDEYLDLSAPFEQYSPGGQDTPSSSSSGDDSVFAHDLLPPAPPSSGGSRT

This assay has as its target FGFR3 kinase (Homo sapiens (Human), UniProt P22607, K650E). Description: FGFR3 kinase inhibition (protein kinase activity assays). The assay is classed as biochemical. The settings on record: read-out: rating (FGFR3 kinase IC50). How it is done: generic assay set-up: Enzyme activities were measured by mixing 10 μL of a 3-fold concentrated compound solution or control with 10 μL of the corresponding substrate mixture (peptidic substrate, ATP and [γ^33P]ATP). The reactions were initiated by addition of 10 μL of a 3-fold concentrated solution of the respective enzyme in assay buffer. […] Filter binding (FB) method: FB assays were carried out in 96-well plates at room temperature for 10 min in a finial volume of 30 μL including the components as indicated in section above. […] After spotting, vacuum was connected and each well rinsed with 200 μL 0.5% H3PO4. Free membranes were removed and washed 4 times on a shaker with 1% H3PO4 and once with ethanol. Membranes were dried and overlaid with addition of 10 μL/well of a scintillation fluid. The plates were eventually sealed and counted in a microplate scintillation counter. IC50 values were calculated by linear regression analysis of the percentage inhibition of the compound.
generic assay set-up: The assay has been run at room temperature on a liquid handling robot. […] After an incubation time of 45 min in the dark, the plates were transferred into a fluorescence reader for counting.
Compounds of formula (I) are assayed to measure their capacity to inhibit FGFR3 kinase as described above.
`CCN1CCN(c2ccc(NC(=O)c3ccc(-c4c(Cl)c(OC)cc(OC)c4Cl)c4cccnc34)cc2)CC1` [Example 159, 5-(2,6-Dichloro-3,5-dimethoxy-phenyl)-quinoline-8-carboxylic acid [4-(4-ethyl-piperazin-1-yl)-phenyl]-amide]: the IC50 (commonly the point on the concentration scale where inhibition reaches its midpoint) is below 100 nM.

Regarding `CCN1CCN(Cc2ccc(NC(=O)c3ccc(-c4c(Cl)c(OC)cc(OC)c4Cl)c4cccnc34)cn2)CC1` [Example 169, 5-(2,6-Dichloro-3,5-dimethoxy-phenyl)-quinoline-8-carboxylic acid [6-(4-ethyl-piperazin-1-ylmethyl)-pyridin-3-yl]-amide], the IC50 was 100 to 500 nM. The result for `COc1cc(OC)cc(-c2ccc(C(=O)Nc3ccc(CN4CCNCC4)cn3)c3nccnc23)c1` [Example 117] reads 500 to 50000 nM; that for `COc1cc(OC)c(Cl)c(-c2ccc(C(=O)Nc3nnc[nH]3)c3nccnc23)c1Cl` [Example 163, 8-(2,6-Dichloro-3,5-dimethoxy-phenyl)-quinoxaline-5-carboxylic acid (4H-[1,2,4]triazol-3-yl)-amide], 500 to 50000 nM.

The record behind these values is patent US8536175B2, “Quinoxaline carboxamide derivatives as protein tyrosine kinase inhibitors” (Novartis AG, priority 2008, dated 2013).
